The values that follow come from US20110207779A1, “PROCESS FOR THE PREPARATION OF ESOMEPRAZOLE MAGNESIUM” (GLENMARK GENERICS LTD, priority 2010, published 2011).

This data set in a line: R-isomer content of formulated esomeprazole magnesium dihydrate after incubation in a closed container (chiral HPLC). The conditions noted are these: formulated in above mentioned dosage forms (capsules, mini-tablets); incubated in a closed container; temperature and time not given. It counts as physicochemical. Here is the method: The content of R-isomer in esomeprazole magnesium dihydrate was measured by chiral high performance liquid chromatography equipped with quaternary gradient pumps, variable wavelength UV detector attached with data recorder and integrator software under the following conditions:
Buffer preparation: mix 70 mL of 156.0 g/l solution of sodium dihydrogen phosphate R with 20 mL of a 179.1 g/l solution of disodium hydrogen phosphate R. Dilute with water to 1000 mL and then dilute 250 mL of this solution with water to 1000 ml. Mobile phase: Acetonitrile: buffer solution pH 6.0 (65:435, v/v).

Each structure is given as a SMILES string.

For `COc1ccc2[n-]c([S@@+]([O-])Cc3ncc(C)c(OC)c3C)nc2c1.COc1ccc2[n-]c([S@@+]([O-])Cc3ncc(C)c(OC)c3C)nc2c1.O.O.[Mg+2]` [Esomeprazole magnesium dihydrate, esomeprazole magnesium dihydrate], the “R-isomer content after formulation and incubation (chiral stability)” value was “remains within the range of R-isomer content”.
